From patent US20150250713A1, “Pharmaceutical Composition” (CIPLA LIMITED, priority 2012, published 2015)

Experiment: Moisture uptake of HFA propellants
Format: physicochemical
Details: ratio versus HFA-227 (measured values)

- moisture uptake compared to HFA-227: six times higher
SMILES: FCC(F)(F)F [HFA-134 (a), 1,1,1,2-tetrafluoroethane]
